“And” between values parts separate entries of the source, which are not always exact repeats. Equal values may be shown once. “Also recorded” adds a separate entry of the source.
Key:
Assay type in all cases: in vivo, Male Sprague-Dawley rats
Collagen I = assay: Assay C: Collagen I mRNA by TaqMan RT-PCR; details: for Collagen type-I message: at 30 days, compared to vehicle + salt controls; for Collagen-I (AU): collagen type I mRNA relative to cyclophilin, eplerenone dose 100 mg/kg/day
Method: (§1) The procedure of Assay B was expanded upon in a further study. […] Myocardial tissue from animals in each treatment group was examined after 7, 14, or 30 days of treatment.
(§2) Potassium chloride supplementation was added to the saline solution in order to prevent the potential hypokalemia associated with aldosterone excess.
(§3) At the time of the surgery, an Alzet 2002 osmotic minipump (Alza Corp., Palo Alto, Calif.) containing either vehicle (9% ethanol/87% propylene glycol/4% dH2O) or 1.0 mg/mL d-aldosterone (Sigma Chemical, St. Louis, Mo.) was inserted subcutaneously at the nape of the neck. Aldosterone was administered at a dose of 0.75 µg/hour. […] Animals were sacrificed from each group (n=8-13) after 7, 14, or 30 days of treatment.
(§4) The fluorogenic 5′-nuclease assay (TaqMan PCR) using Applied Biosystems' 7700 Sequence Detection System (Applied Biosystems, Foster City, Calif.) allowed for real time detection/quantitation of a specific gene by monitoring the increase in fluorescence of a gene-specific, dye-labeled oligonucleotide probe. Probes for target and reference genes were labeled at the 5′-end with a 6-carboxyfluorescein (6FAM) reporter dye and at the 3′-end with a 6-carboxy-N,N,N′,N′-tetramethylrhodamine (TAMRA) quencher dye. When the probe was annealed to the target gene, fluorescence of 6FAM was prevented by the close proximity of TAMRA. The exonuclease activity of Taq polymerase released the dyes from the oligonucleotide probe by displacing the probe from the target sequence resulting in fluorescence excitation in direct proportion to the amount of target message present. Data analysis was performed using the Sequence Detection System software from Applied Biosystems.
Primers and probes were designed using Oligo Primer Analysis Software, Version 5.0 (National Biosciences Inc. (NBI)-Wojciech Rychlik, Cascade, Colo.). Primers were synthesized by Life Technologies (Grand Island, N.Y.) and probes were synthesized by Applied Biosystems. Primer/probe sets were designed from known sequences of rat genes to be analyzed. All target gene values were normalized to a reference gene, constitutively expressed cyclophilin. Primer/probe sets sequences can be found in Table 8
RNA was extracted from frozen (−70° C.) left ventricle (LV) tissue (approximately 10-20 mg) using 1.5 mL RNA-STAT 60 according to manufacturer's instructions (Leedo Medical Laboratories, Inc., Houston, Tex.). Briefly, tissues were homogenized using a tissue homogenizer equipped with a 5 mm probe (Ultra-Turrax T8 Homogenizer, IKA Works, Inc. Wilmington, N.C.). Following homogenization, an equal volume of molecular grade chloroform (Sigma Chemical Co., St. Louis, Mo.) was incubated with periodic mixing for 10 min at room temperature. Samples were centrifuged at 12,000 g for 10 min and RNA was precipitated from the top layer by adding an equal volume of molecular grade isopropanol (Sigma Chemical Co.) followed by an overnight incubation at −80° C. RNA was pelleted by centrifugation at 12,000 g, washed with 75% ethanol, and solubilized in nuclease-free water (Promega, Madison, Wis.).
Double-stranded cDNA was synthesized by adding 400 ng RNA (4 uL) to a final volume of 20 uL containing 15% nuclease-free water (Promega, Madison, Wis.), 1×RT Buffer (Life Technologies, Grand Island, N.Y.), 10 mM DTT (Life Technologies), 0.5 mM each of dATP, dTTP, dGTP, dCTP (PE Biosystems, Foster City, Calif.), 2.5 μM Oligo d(T)15 (Oligo Therapeutics, Inc., Wilsonville, Oreg.), 40 units RNAsin (Promega), and 200 units SuperScript II Reverse Transcriptase (Life Technologies). The reactions were performed in thin-walled reaction tubes with caps (Applied Biosystems) to ensure accurate reaction temperatures.

cyclooxygenase-2 (COX-2) = assay: Assay C: COX-2 mRNA in heart by TaqMan RT-PCR; details: for COX-2 (AU): mRNA; for COX-2 mRNA expression: myocardium, aldosterone + salt, 7, 14, 30 days, eplerenone 100 mg/kg/day
Method: as §1, §2, §3, §4
(§5) All primers and probes were designed using Primer Express software supplied with the 7700 Sequence Detection System and synthesized by Applied Biosystems. Standard curves using 5-fold dilutions of total RNA (from 200 ng to 320 pg) were performed to determine the efficiency of each primer/probe set in the TaqMan reaction prior to the analysis of the experimental samples. Primer/probe sets were designed from known sequences of rat genes to be analyzed. All target gene values were normalized to a reference gene, constitutively expressed cyclophilin. Primer/probe set sequences can be found in Table 8.
(§6) RNA was extracted from frozen (−80° C.) rat heart tissue using the Totally RNA Isolation Kit (Ambion, Inc., Austin, Tex.). Tissue was crushed using a stainless steel mortar and pestle, which had been chilled to −80° C. and transferred to a dounce homogenizer (Kontes, Vineland, N.J.) containing 3-10 mL cold denaturation buffer. Tissue was homogenized and transferred to a sterile, 15 mL polypropylene centrifuge tube. An equal volume of phenol:chloroform:isoamyl alcohol (25:24:1) was added, samples were shaken vigorously for 1 min, and incubated on ice for at least 15 min. Samples were centrifuged for 30 min at 10,000g. The aqueous phase was removed, 1/10 volume of a sodium acetate solution (3.0 M NaOAc pH 4.5) was added, samples were shaken or inverted for 10 seconds, and acid-phenol (premixed with isoamyl alcohol):chloroform (5:1, Ambion, Inc.) was added at an volume equivalent to the starting sample volume. Samples were shaken vigorously for 1 min, followed by a 15-min incubation on ice, and centrifuged for 30 min at 10,000 g. The aqueous phase removed and placed in a clean polypropylene tube. An equal volume of isopropanol (Sigma, St. Louis, Mo.) was added and the samples were mixed and incubated overnight at −20° C. The samples were centrifuged for 30 min at 10,000 g, the supernatant was removed and the RNA pellet was resuspended in DNAse/RNAse-free water. Samples were frozen at −80° C. for at least 2 hours, thawed on wet ice, and diluted for quantitation.

[1] = test system: Intracellular adhesion molecule-1 (ICAM-1); assay: Assay C: ICAM-1 mRNA in heart by TaqMan RT-PCR; details: for ICAM mRNA (AU): relative to cyclophilin expression, mean ± SEM, eplerenone dose 100 mg/kg/day; for ICAM (AU): mRNA; for ICAM-1 mRNA expression: myocardium, aldosterone + salt, 7, 14, 30 days, eplerenone 100 mg/kg/day
Method: as §1, §2, §3, §4, §5, §6

[2] = mean ± SEM after 7 days of treatment
[3] = mean ± SEM after 14 days of treatment
[4] = mean ± SEM after 30 days of treatment
[5] = group mean, data used for Table 15 (14 days of treatment)
[6] = group mean, data used for Table 16 (30 days of treatment)
[7] = group mean, data used for Table 17 (7-day protocol)
[8] = group mean, data used for Table 18 (14-day protocol)
[9] = group mean, data used for Table 19 (30-day protocol)
[10] = individual rats, data used for Table 17 (7-day protocol), incl. rat marked * excluded from statistics, listed as Aldosterone + salt
[11] = individual rats, data used for Table 18 (14-day protocol), incl. rat marked * excluded from statistics, listed as Aldosterone + salt
[12] = individual rats, data used for Table 19 (30-day protocol), incl. rat marked * excluded from statistics, listed as Aldosterone + salt
[13] = individual rats, data used for Table 17 (7-day protocol), incl. rat marked * excluded from statistics, listed as Eplerenone + aldosterone + salt
[14] = individual rats, data used for Table 18 (14-day protocol), incl. rat marked * excluded from statistics, listed as Eplerenone + aldosterone + salt
[15] = individual rats, data used for Table 19 (30-day protocol), incl. rat marked * excluded from statistics, listed as Eplerenone + aldosterone + salt

| Compound | Collagen type-I message (Collagen I) | Collagen-I (AU) (Collagen I; [2]) | Collagen-I (AU) (Collagen I; [3]) | Collagen-I (AU) (Collagen I; [4]) | Collagen-I mRNA (AU) (Collagen I; [5]) | Collagen-I mRNA (AU) (Collagen I; [6]) | COX-2 (AU) (cyclooxygenase-2 (COX-2); [7]) | COX-2 (AU) (cyclooxygenase-2 (COX-2); [8]) | COX-2 (AU) (cyclooxygenase-2 (COX-2); [9]) | COX-2 mRNA expression (cyclooxygenase-2 (COX-2)) | ICAM mRNA (AU) ([1]; after 7 days of treatment) | ICAM mRNA (AU) ([1]; after 14 days of treatment) | ICAM mRNA (AU) ([1]; after 30 days of treatment) | ICAM (AU) [1, 7] [AU] | ICAM (AU) [1, 8] [AU] | ICAM (AU) [1, 9] [AU] | ICAM-1 mRNA expression [1] | further results |
| --- | --- | --- | --- | --- | --- | --- | --- | --- | --- | --- | --- | --- | --- | --- | --- | --- | --- | --- |
| C[C@]12CCC(=O)C=C1CC[C@@H]1[C@@H]2[C@@H](O)C[C@]2(C=O)[C@@H](C(=O)CO)CC[C@@H]12 [Aldosterone] | modest increase | 1.36 ± 0.14 | 1.33 ± 0.24 | 2.29 ± 0.47 | 1.33 | 2.29 | 2.22 | 4.34 | 4.53 | significantly increased | 1.22 | 1.47 | 1.81 | 1.22 | 1.47 | 1.81 | upregulated at day 14 and 30 | Collagen-I mRNA (AU) (Collagen I; individual rats, data used for Table 15 (14 days of treatment), incl. rat marked * excluded from statistics, listed as Aldosterone + salt): 1.15 AU and 2.31 AU and 0.25 AU and 1.89 AU and 2.03 AU and 1.00 AU and 1.20 AU and 1.70 AU and 0.43 AU and 2.69 AU; Collagen-I mRNA (AU) (Collagen I; individual rats, data used for Table 16 (30 days of treatment), incl. rat marked * excluded from statistics, listed as Aldosterone + salt): 2.20 AU and 2.02 AU (2×) and 5.88 AU and 1.05 AU and 1.32 AU and 1.98 AU and 1.63 AU and 2.54 AU; COX-2 (AU) (cyclooxygenase-2 (COX-2); [10]): 2.10 AU and 0.70 AU and 2.01 AU and 2.95 AU and 2.05 AU and 1.94 AU and 3.54 AU and 2.45 AU and 0.82 AU; COX-2 (AU) (cyclooxygenase-2 (COX-2); [11]): 7.39 AU and 1.83 AU and 5.80 AU and 2.59 AU and 6.63 AU and 4.18 AU and 3.71 AU and 2.62 AU and 23.34 AU; COX-2 (AU) (cyclooxygenase-2 (COX-2); [12]): 4.26 AU and 4.81 AU and 1.54 AU and 3.10 AU and 5.28 AU and 8.20 AU; ICAM (AU) [1, 10]: 1.39 AU and 0.80 AU and 1.09 AU and 1.61 AU and 1.11 AU and 1.15 AU and 1.56 AU and 1.06 AU and 1.68 AU; ICAM (AU) [1, 11]: 1.16 AU and 1.18 AU and 1.75 AU and 1.15 AU and 1.91 AU and 1.19 AU and 1.82 AU and 1.57 AU and 1.84 AU; ICAM (AU) [1, 12]: 2.67 AU and 1.63 AU and 1.69 AU and 1.50 AU and 1.54 AU |
| COC(=O)[C@@H]1CC2=CC(=O)CC[C@]2(C)[C@@]23O[C@@H]2C[C@@]2(C)[C@@H](CC[C@@]24CCC(=O)O4)[C@H]13 [Eplerenone] | modest increase | 0.85 ± 0.15 | 1.39 ± 0.21 | 2.53 ± 0.20 | 1.39 | 2.53 | 1.25 | 2.02 | 2.28 | inhibition; also recorded: significantly reduced | 0.83 | 1.19 | 1.22 | 0.83 | 1.19 | 1.22 | inhibition; also recorded: significantly reduced | Collagen-I mRNA (AU) (Collagen I; individual rats, data used for Table 15 (14 days of treatment), incl. rat marked * excluded from statistics, listed as Eplerenone + aldosterone + salt): 0.86 AU (2×) and 0.90 AU and 1.65 AU and 1.14 AU and 1.44 AU and 0.50 AU and 1.24 AU and 1.69 AU and 2.03 AU and 3.02 AU; Collagen-I mRNA (AU) (Collagen I; individual rats, data used for Table 16 (30 days of treatment), incl. rat marked * excluded from statistics, listed as Eplerenone + aldosterone + salt): 1.89 AU and 1.54 AU and 2.65 AU (2×) and 1.97 AU and 2.98 AU and 2.90 AU and 2.88 AU and 3.35 AU and 2.01 AU; COX-2 (AU) (cyclooxygenase-2 (COX-2); [13]): 1.19 AU and 2.85 AU and 0.60 AU (2×) and 1.16 AU and 0.82 AU and 1.86 AU and 0.91 AU; COX-2 (AU) (cyclooxygenase-2 (COX-2); [14]): 1.56 AU and 1.04 AU and 0.70 AU and 1.41 AU and 3.78 AU and 1.86 AU and 6.19 AU and 1.87 AU and 0.99 AU and 1.92 AU and 0.86 AU; COX-2 (AU) (cyclooxygenase-2 (COX-2); [15]): 2.44 AU and 0.55 AU and 1.97 AU and 3.41 AU and 3.71 AU and 3.04 AU and 2.11 AU and 1.34 AU and 1.92 AU and 12.21 AU; ICAM (AU) [1, 13]: 0.91 AU and 0.89 AU (2×) and 0.40 AU and 1.23 AU and 0.58 AU and 1.00 AU; ICAM (AU) [1, 14]: 1.20 AU and 1.36 AU and 0.95 AU and 1.26 AU and 1.56 AU and 0.98 AU (2×) and 1.51 AU and 0.79 AU and 1.72 AU and 0.83 AU; ICAM (AU) [1, 15]: 1.54 AU and 2.06 AU and 1.01 AU and 1.21 AU and 1.26 AU and 1.06 AU and 0.60 AU and 0.99 AU and 2.92 AU |
